# Source: patent US20100168146A1, “Composition Comprising (R)-Spiro[L-Azabicyclo[2.2.2]Octane-3,2'(3'H)-Furo[2,3-B]Pyridine (AZD0328) and its Use in the Treatment of Alzheimer's Disease, ADHD or Cognitive Dysfunction” (priority 2008, published 2010)
# “Also recorded” adds a separate entry of the source.
# Assays:
# [1] = PK/TK multiple dose studies; type: in vivo; settings: rabbit 2F, DMB15, subcutaneous 1.15 mg/kg (3 μmol/kg), day 18
# Excerpt: This section provides a summary of the pharmacokinetic and metabolism properties of AZD0328 derived from in vivo studies. […] The derived PK/TK parameters from these studies are presented in Table 4 for single dose studies (DMR4, 0619LR, 20030191PCR, DM016, DMB10, DMW12, 50190, 0190DD and 03.330/1), and are presented in Table 5 multiple dose PK/TK studies (DMR4, 0612AR, DMB15, 50190, 0190DD and 0295AD).
# Pgp transporter = Pgp transporter (Homo sapiens, UniProt P08183); assay: Digoxin transport, cell-based assay; type: in vitro ADME
# Chain of Pgp transporter (P08183 whole entry): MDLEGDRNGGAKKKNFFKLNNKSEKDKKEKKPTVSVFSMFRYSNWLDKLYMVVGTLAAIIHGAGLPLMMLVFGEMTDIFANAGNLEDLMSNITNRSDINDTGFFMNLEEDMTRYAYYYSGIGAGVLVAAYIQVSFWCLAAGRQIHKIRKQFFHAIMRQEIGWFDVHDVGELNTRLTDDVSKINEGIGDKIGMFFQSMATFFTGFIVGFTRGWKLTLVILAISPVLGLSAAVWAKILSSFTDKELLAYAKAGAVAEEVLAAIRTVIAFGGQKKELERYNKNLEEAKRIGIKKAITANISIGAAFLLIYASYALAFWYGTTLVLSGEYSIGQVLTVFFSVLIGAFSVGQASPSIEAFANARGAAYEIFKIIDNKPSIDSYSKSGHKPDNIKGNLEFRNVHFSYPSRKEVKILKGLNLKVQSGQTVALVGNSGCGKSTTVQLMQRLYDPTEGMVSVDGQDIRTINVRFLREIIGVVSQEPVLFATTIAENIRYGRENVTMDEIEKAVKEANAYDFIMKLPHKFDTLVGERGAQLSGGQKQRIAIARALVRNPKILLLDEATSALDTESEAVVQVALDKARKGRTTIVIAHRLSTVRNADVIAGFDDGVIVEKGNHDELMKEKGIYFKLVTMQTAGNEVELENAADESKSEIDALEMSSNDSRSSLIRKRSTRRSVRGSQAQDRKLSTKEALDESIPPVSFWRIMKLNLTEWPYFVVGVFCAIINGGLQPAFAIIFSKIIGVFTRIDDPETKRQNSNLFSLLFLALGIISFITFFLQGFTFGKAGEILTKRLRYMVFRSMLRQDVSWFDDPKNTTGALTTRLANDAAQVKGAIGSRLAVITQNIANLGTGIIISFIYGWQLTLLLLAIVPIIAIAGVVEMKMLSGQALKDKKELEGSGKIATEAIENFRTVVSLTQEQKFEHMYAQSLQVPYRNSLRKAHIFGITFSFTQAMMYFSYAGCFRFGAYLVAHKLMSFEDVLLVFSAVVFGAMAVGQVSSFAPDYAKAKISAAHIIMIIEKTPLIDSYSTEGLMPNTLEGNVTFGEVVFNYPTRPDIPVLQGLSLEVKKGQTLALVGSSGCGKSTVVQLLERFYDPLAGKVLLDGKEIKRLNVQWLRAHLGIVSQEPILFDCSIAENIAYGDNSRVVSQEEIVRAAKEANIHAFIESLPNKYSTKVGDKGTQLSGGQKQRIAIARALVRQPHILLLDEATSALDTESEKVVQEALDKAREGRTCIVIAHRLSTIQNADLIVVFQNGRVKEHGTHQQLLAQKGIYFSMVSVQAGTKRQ
# Excerpt: (§1) The 50% bioavailability of AZD0328 in human was conservatively selected based on the observations from rat, dog and monkey.
# 5-HT3A/B receptors = molecular target: T1, 5-HT3A/B receptors (Homo sapiens, UniProt O95264+P46098); assay: Functional potency at recombinant human receptors in vitro; type: cell-based
# T1 construct: expressed in transfected cells
# T1 sequence (P46098 24-478): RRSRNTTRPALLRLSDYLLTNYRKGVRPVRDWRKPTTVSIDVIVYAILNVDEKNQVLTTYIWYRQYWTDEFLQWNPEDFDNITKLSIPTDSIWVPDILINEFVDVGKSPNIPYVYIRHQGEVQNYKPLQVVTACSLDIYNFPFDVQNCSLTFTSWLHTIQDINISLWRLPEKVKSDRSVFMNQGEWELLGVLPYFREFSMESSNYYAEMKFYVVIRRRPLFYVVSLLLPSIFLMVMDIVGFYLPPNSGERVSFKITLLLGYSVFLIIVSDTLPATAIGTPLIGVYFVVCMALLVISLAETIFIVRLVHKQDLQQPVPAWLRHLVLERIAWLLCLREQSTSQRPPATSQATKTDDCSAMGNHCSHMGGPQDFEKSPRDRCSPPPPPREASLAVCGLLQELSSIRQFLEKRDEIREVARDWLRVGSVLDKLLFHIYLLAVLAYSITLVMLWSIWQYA
# T1 sequence (O95264 22-441): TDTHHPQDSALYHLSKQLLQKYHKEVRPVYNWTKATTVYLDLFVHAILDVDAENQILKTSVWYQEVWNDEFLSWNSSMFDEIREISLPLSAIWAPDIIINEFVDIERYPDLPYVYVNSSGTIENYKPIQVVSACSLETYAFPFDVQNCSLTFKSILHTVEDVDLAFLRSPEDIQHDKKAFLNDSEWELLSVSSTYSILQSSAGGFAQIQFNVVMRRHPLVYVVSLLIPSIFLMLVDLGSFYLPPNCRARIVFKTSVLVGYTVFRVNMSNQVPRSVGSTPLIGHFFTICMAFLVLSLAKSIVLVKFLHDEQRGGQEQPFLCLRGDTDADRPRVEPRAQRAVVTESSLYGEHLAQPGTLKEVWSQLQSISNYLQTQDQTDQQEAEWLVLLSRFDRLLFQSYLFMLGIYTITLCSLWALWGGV
# rats [2] = assay: 1 month repeated-dose oral toxicity; type: in vivo; settings: rat, one month, high dose 65 mg/kg/day (300 μmol/kg/day)
# Description: The objective of this investigation was to study the toxicity of AZD0328 given orally to rats for 1 month. Four groups of rats, each consisting of 10 males and 10 females, were given 0, 2.2, 15 and 65 mg/kg/day ([…]) of AZD0328.
# human hepatocytes = assay: Hepatocyte incubations (metabolites); type: in vitro ADME; settings: four separate batches of human hepatocytes
# Description: Pyridinyl methylation of AZD0328 was a unique polar metabolite (M2) observed in dog hepatocytes. Other minor hydroxylation/oxidation and glucuronide conjugation products were detected in monkey, dog, rat, and guinea pig hepatocyte incubations and mini-pig hepatic microsome incubations. […] Analysis of plasma and urine samples from either orally or iv dosed rats confirmed N-oxide product of AZD0328 was a main product in the excretion and circulation. The percentage of AZD0328 N-oxide in the plasma from male rats was much higher than from females.
# dog Purkinje fibre = assay: Dog isolated cardiac Purkinje fibres, action potentials; settings: stimulation 0.5 and 1 Hz
# Description: Effects of AZD0328 on cardiac action potentials were assessed in 4 dog Purkinje fibre preparations. (Table 3). The following action potential parameters were measured at the stimulation frequencies 0.5 and 1 Hz: action potential duration at 50% (APD50), 70% (APD70) and 90% (APD90) of repolarisation; the maximum velocity of the action potential upstroke (Vmax); the action potential amplitude (APA) and the resting membrane potential (RMP). At both stimulation frequencies, AZD0328 caused a concentration-dependent prolongation of APD50, APD70 and APD90, with significant effects at 5.6 μM and above. There was also an indication of proarrhythmic potential of the compound. A 10% increase in APD90 in the isolated dog Purkinje fibre is seen at concentrations between 5.6 and 16.8 μm.
# marmoset monkeys = assay: Behavioral effects / tolerability; type: in vivo; settings: im, first five minutes after administration
# Description: Prior to testing its effects on cognitive task performance in marmoset monkeys, the tolerability of AZD0328 was assessed. (Table 3). Behaviours noted in individual marmosets during the five minutes immediately following drug administration were salivation, vomiting, scratching, defecation and increased activity.
# Mouse lymphoma test = assay: Mouse lymphoma test; type: cell-based
# Excerpt: (§2) The genotoxic potential of AZD0328 has been evaluated in the Ames test and in the Mouse lymphoma test. AZD0328 was not mutagenic in either of these tests.
# Ames test = assay: Ames test; type: cell-based
# Excerpt: as §2
# rats [3] = assay: Nicotine drug discrimination; settings: Wistar, rat, in vivo, sc
# Description: AZD0328 was tested for its potential to produce nicotine-like stimulus effects after subcutaneous administration in a drug-discrimination procedure (Table 3).
# [4] = Predicted human PK / exposure (allometric scaling of rat and monkey data)
# Description: as §1
# Given the findings in the 1 month repeated dose toxicology studies in the rats, it is reasonable to set human systemic exposure limits following single dose administration equal to the exposure observed at NOAEL for renal tubule vacuolation. The corresponding human equivalent dose, based on the FDA guidance (via allometric scaling of body surface area) is, 0.35 mg/kg. A dose of 0.03 mg/day is proposed as a starting dose.
smiles,measurement,setting,value
"c1cnc2c(c1)C[C@@]1(CN3CCC1CC3)O2 [AZD0328, (R)-Spiro[1-azabicyclo[2.2.2]octane-3,2′(3′H)-furo[2,3-b]pyridine]]",Tmax,[1],18 to 60 min
same,Pgp mediated digoxin transport,Pgp transporter,did not significantly inhibit
same,Functional potency α7 versus 5-HT3A/B,5-HT3A/B receptors,equipotent
same,Target organ pathology (kidney),rats [2],vacuolation of the tubular cells
same,Metabolites in hepatocyte incubations,human hepatocytes,no metabolites were detected
same,"Concentration with significant prolongation of APD50, APD70 and APD90",dog Purkinje fibre,≥ 5.6 µM
same,"Doses with salivation, vomiting, scratching, defecation and increased activity",marmoset monkeys,administration with 0.03-3 mg/kg
same,Mutagenicity / genotoxicity,Mouse lymphoma test,not genotoxic; also recorded: not mutagenic
same,Mutagenicity / genotoxicity,Ames test,not genotoxic; also recorded: not mutagenic
same,Dose up to which nicotine-like stimulus properties were lacking,rats [3],properties at doses up to 5.4 mg/kg
same,Predicted free human therapeutic plasma level,[4],0.5 to 1.7 nM
same,Human equivalent dose of the rat NOAEL (allometric scaling of body surface area),[4]; NOAEL for renal tubule vacuolation,0.35 mg/kg
same,"Bioavailability in human, conservatively selected",[4]; human,50%
